Results on three molecules are retold here after article PMC7613998, “Development of selective inhibitors of phosphatidylinositol 3-kinase C2α” (Nature Chemical Biology, 2022).

Common to all, as to experiment: biochemical
Common to all, as to design: SelectScreen Adapta purified lipid kinase panel, 1 uM compound, 10 uM ATP, per cent inhibition

In one assay the target is PIK3C2B (PI3K-C2 beta) (Homo sapiens, UniProt O00750). As to conditions: ATP=10; Technology=Adapta; 10 uM ATP. The method, then:
(§1) As PI3KC2α is related to other PI3Ks and to PI3K-like protein kinases such as mTOR, the selectivity of PITCOINs was determined in a panel of biochemical assays. […] Finally, the high specificity of PITCOINs for PI3KC2α was verified by Kinobead profiling experiments. In this approach, the ability of PITCOINs to compete the affinity capture of cellular kinases on immobilized nonselective kinase inhibitors (Kinobeads) is analyzed by mass spectrometry (MS)[31]. […] Four nonkinase weak off-targets were globally found for the three inhibitors with only FECH[32] common to the three PITCOINs (Supplementary Dataset).  Extended Data Fig. 2 Lipid kinase inhibitor profile of PITCOIN1-3. (a–c) Selectivity profiling of PITCOIN1-3 (1 µM) with purified lipid kinases in the presence of 10 µM ATP. […] Data are presented as mean ± SD from two independent experiments. (d, e) IC50 measurements of PITCOIN1-3 against purified recombinant class I PI3K p110α/p85α (d) or purified class III PI3K VPS34 complex II (e). 10 µM ATP and 20 µM PIP3 (for p110α/p85α) or 200 µM PI (for VPS34 complex II) were used as substrates. […] Data are presented as mean ± SD from two independent experiments. Source data

In a further assay the target is SPHK1 (Homo sapiens, UniProt Q9NYA1). As to conditions: ATP=10; Technology=Adapta; 10 uM ATP. As to the method:
as §1

The next assay deals with PIK3C2A (PI3K-C2 alpha) (Homo sapiens, UniProt O00443). As to conditions: ATP=10; Technology=Adapta; 10 uM ATP; 1 µM; inhibitor. The method, then:
as §1

For a further assay, the target named is PI4K2A (PI4K2 alpha) (Homo sapiens, UniProt Q9BTU6). As to conditions: ATP=10; Technology=Adapta; 10 uM ATP. The method, then:
as §1

Assay [1] concerns the target PIK3CB/PIK3R2 (p110 beta/p85 beta) (Homo sapiens, UniProt P42338). As to conditions: ATP=10; Technology=Adapta; 10 uM ATP. The method, then:
as §1

A further assay concerns the target T1, PIK3C2G (PI3K-C2 gamma) (Homo sapiens, UniProt O75747).
T1 sequence (O75747 1-1486): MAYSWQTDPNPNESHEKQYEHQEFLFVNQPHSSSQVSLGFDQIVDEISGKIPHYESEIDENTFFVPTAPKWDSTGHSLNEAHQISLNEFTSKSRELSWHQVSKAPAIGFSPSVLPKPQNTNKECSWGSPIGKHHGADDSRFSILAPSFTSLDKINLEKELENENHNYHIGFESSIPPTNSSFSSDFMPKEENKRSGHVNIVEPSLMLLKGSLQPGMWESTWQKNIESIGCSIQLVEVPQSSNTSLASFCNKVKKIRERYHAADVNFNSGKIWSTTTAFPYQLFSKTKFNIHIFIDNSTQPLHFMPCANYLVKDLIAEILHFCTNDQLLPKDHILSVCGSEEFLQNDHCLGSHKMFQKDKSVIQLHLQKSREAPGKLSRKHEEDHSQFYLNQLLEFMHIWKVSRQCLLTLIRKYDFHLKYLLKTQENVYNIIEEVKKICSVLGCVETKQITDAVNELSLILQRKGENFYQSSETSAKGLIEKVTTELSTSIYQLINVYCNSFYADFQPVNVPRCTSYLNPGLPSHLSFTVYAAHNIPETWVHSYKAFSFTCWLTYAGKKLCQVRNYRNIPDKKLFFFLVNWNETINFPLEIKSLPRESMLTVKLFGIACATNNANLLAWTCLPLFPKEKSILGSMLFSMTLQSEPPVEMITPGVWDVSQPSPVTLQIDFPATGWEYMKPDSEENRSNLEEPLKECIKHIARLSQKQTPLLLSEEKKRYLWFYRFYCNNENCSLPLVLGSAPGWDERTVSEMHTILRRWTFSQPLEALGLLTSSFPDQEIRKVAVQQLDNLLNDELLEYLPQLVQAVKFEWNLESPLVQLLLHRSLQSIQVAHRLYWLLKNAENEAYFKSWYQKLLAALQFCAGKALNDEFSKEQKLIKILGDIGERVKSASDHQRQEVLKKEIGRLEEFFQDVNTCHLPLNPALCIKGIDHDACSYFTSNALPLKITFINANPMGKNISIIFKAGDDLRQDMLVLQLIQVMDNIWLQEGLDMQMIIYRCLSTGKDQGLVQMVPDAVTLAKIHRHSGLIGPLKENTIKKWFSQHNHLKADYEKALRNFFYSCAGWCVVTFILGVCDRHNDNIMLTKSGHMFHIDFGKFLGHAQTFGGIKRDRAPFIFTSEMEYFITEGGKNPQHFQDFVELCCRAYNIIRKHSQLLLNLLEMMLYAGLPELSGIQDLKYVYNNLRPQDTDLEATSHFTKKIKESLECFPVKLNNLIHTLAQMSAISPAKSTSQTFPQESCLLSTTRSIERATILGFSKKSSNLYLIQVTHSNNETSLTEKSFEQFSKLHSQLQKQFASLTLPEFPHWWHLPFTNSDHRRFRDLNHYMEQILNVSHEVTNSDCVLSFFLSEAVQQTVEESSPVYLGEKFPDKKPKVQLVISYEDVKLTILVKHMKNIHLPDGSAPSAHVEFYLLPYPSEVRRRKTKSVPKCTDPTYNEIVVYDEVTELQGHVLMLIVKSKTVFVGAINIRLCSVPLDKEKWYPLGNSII
As to conditions: ATP=10; Technology=Adapta; 10 uM ATP. As to the method: as §1

The target of the next assay is PI4KB (PI4K beta) (Homo sapiens, UniProt Q9UBF8). As to conditions: ATP=10; Technology=Adapta; 10 uM ATP. As to the method:
as §1

In assay [2] the target is PIK3CB/PIK3R1 (p110 beta/p85 alpha) (Homo sapiens, UniProt P42338). As to conditions: ATP=10; Technology=Adapta; 10 uM ATP. As to the method: as §1

Chain of PIK3C2B (PI3K-C2 beta) (O00750 whole entry): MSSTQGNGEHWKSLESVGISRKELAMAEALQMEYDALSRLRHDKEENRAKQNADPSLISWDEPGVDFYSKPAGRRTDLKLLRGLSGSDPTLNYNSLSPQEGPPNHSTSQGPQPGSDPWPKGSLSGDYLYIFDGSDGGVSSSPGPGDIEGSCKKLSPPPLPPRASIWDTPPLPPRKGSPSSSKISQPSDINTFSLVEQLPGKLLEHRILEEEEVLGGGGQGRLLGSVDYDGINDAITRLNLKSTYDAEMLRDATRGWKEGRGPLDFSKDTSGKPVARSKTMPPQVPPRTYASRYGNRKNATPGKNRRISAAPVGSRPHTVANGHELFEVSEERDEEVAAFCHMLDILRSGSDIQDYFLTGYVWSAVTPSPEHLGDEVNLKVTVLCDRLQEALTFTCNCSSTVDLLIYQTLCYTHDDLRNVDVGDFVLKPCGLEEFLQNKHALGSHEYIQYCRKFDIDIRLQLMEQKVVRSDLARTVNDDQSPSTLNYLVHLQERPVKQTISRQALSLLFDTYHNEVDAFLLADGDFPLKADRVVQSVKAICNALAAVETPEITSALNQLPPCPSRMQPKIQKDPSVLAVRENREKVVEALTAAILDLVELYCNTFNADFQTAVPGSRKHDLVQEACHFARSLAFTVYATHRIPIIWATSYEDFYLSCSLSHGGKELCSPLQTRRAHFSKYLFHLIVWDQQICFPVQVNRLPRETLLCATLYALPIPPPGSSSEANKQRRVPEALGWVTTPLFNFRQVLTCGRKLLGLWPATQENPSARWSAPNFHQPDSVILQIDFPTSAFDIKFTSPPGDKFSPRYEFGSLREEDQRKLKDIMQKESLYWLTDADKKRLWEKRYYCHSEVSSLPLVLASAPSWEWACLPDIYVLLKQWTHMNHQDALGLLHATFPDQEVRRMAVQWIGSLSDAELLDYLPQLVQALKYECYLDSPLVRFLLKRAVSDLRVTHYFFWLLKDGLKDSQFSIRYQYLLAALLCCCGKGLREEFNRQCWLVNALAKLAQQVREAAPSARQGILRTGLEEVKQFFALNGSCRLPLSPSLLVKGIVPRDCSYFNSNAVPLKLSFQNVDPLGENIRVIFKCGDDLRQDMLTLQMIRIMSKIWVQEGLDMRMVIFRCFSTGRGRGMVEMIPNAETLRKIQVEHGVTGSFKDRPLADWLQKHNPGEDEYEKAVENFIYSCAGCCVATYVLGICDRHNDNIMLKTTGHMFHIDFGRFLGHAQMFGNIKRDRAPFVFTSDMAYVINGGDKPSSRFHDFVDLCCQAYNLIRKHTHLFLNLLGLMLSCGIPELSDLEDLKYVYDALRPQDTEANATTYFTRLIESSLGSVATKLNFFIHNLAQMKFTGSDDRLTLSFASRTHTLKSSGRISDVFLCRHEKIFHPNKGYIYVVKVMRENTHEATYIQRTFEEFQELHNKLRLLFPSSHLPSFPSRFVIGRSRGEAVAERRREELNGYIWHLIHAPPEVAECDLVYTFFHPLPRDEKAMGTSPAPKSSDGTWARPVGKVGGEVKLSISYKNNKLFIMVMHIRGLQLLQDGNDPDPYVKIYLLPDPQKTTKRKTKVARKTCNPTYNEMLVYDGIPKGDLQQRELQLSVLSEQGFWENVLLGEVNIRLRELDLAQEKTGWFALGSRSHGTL
Chain of PI4KB (PI4K beta) (Q9UBF8 whole entry): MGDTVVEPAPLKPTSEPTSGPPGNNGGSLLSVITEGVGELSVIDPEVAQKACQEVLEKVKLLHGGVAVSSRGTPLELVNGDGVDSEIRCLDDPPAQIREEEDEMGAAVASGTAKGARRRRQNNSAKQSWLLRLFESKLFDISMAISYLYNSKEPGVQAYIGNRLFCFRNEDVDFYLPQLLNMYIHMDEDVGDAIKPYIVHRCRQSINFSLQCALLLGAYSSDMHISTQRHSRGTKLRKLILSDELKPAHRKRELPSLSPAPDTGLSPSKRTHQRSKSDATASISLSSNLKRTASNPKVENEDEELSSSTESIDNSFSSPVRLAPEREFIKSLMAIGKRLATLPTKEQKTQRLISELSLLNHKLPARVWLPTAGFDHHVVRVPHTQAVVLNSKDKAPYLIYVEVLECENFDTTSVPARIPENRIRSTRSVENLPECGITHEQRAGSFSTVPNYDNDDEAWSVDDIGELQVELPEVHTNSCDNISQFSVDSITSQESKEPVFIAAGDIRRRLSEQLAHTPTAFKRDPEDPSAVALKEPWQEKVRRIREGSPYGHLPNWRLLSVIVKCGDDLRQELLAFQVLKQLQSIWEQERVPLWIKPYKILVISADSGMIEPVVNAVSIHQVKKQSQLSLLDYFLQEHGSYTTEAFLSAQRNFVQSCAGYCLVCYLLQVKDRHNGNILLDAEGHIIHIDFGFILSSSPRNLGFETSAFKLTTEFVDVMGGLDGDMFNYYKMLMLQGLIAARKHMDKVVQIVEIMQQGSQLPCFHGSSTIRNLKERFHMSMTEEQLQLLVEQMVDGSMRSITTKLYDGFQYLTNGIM
Chain of SPHK1 (Q9NYA1 whole entry): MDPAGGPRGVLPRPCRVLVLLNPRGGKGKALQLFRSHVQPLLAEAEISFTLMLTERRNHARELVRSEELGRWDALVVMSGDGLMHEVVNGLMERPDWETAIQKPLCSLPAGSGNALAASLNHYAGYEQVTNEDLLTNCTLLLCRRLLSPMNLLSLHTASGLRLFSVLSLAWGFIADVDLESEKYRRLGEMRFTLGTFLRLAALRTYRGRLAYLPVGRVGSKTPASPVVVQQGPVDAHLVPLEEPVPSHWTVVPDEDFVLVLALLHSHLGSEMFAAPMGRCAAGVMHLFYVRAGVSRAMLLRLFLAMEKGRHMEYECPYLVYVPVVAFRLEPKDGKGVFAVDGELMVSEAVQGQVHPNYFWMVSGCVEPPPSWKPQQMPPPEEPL
Chain of PIK3C2A (PI3K-C2 alpha) (O00443 whole entry): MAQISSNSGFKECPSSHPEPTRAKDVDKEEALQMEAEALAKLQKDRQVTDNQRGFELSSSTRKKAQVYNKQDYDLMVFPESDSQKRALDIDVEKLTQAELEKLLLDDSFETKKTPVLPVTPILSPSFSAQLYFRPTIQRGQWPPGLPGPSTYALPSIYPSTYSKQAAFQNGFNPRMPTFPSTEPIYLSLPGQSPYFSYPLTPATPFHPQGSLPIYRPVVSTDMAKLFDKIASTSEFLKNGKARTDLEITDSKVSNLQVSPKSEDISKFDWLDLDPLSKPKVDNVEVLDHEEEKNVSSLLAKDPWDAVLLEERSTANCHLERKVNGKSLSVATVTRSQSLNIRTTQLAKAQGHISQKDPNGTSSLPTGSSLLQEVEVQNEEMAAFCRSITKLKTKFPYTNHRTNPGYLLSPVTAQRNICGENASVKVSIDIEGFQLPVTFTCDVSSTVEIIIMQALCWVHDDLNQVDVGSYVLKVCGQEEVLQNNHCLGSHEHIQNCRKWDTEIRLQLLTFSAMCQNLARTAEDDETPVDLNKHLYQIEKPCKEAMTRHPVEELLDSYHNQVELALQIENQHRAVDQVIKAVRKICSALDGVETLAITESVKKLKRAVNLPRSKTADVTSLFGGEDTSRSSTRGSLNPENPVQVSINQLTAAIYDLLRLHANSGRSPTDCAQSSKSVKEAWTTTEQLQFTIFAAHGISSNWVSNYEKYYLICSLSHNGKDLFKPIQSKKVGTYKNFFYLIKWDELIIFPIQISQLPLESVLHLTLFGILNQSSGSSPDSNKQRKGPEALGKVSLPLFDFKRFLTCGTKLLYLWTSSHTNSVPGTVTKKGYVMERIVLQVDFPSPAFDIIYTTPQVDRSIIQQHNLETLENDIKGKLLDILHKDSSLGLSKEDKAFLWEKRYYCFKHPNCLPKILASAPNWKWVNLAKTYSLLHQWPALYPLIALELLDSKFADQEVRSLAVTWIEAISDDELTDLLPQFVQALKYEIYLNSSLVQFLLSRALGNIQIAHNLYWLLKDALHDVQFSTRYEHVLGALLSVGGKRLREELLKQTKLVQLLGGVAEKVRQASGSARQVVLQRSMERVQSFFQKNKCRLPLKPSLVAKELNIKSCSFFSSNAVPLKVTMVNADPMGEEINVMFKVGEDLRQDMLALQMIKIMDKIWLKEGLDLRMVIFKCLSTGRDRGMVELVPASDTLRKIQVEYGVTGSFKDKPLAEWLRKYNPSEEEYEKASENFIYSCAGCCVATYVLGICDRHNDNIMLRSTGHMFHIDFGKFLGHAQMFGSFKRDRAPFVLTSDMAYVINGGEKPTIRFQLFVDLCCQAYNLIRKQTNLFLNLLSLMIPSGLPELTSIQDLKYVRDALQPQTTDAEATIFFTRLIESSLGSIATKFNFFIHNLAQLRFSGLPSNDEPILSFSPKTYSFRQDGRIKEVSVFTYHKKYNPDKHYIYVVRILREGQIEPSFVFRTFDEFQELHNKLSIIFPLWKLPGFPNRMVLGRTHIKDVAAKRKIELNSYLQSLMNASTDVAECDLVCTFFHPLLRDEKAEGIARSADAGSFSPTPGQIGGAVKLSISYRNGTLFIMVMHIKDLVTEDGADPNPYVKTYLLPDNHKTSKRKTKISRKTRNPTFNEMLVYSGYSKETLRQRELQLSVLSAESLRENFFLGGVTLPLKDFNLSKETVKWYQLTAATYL
Chain of PI4K2A (PI4K2 alpha) (Q9BTU6 whole entry): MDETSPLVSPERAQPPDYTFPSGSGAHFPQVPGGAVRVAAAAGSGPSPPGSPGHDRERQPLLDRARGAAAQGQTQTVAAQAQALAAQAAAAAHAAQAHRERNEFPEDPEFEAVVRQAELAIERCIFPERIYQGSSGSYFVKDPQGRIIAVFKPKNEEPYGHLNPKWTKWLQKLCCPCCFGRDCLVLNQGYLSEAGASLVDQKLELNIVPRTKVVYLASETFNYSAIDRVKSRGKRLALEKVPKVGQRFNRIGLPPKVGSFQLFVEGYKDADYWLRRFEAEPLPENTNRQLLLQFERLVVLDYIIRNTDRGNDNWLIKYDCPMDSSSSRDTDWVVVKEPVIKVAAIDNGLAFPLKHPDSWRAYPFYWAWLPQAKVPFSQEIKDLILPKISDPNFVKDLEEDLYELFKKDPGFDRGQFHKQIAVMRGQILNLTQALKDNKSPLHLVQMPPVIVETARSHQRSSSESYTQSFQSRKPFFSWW

Regarding `O=C(CSc1nc2nccnc2c(=O)n1CCc1ccccc1)Nc1nccs1` [compound 1, PITCOIN1], the inhibition – broadly, the drop in the measured response relative to a control, in per cent – at 1 µM on PIK3C2B (PI3K-C2 beta) is 12%; against SPHK1, -1%; on PI4K2A (PI4K2 alpha), 8%; in assay [1] it was 3%; against PIK3C2G (PI3K-C2 gamma), 30%; against PI4KB (PI4K beta) it was 4%. For the same molecule, in assay [2], the inhibition at 1 µM was 10%. In addition, the “% Inhibition Avg” value on PIK3C2A (PI3K-C2 alpha) was determined as 88%.

Consider `O=C(CSc1nc2nccnc2c(=O)n1CCc1ccccc1)Nc1nc(-c2cccc(O)c2)cs1` [compound 2, PITCOIN2], for which the inhibition at 1 µM at PIK3C2B (PI3K-C2 beta) was 40%; on SPHK1, -6%; against PI4K2A (PI4K2 alpha) it was 4%; in assay [1], -2%; against PIK3C2G (PI3K-C2 gamma) it was 9%; against PI4KB (PI4K beta), 3%. The inhibition at 1 µM in assay [2] stood at 13%. Further, the “% Inhibition Avg” value on PIK3C2A (PI3K-C2 alpha) was 87%.

As for `CS(=O)(=O)Nc1cccc(-c2csc(NC(=O)CSc3nc4nccnc4c(=O)n3CCc3ccccc3)n2)c1` [compound 3, PITCOIN3], the inhibition at 1 µM on PIK3C2B (PI3K-C2 beta) is 9%; against SPHK1 it was -1%; against PI4K2A (PI4K2 alpha) it was 1%; in assay [1], 7%; at PIK3C2G (PI3K-C2 gamma), 6%; against PI4KB (PI4K beta), 13%. Also, in assay [2], the inhibition at 1 µM worked out at 12%. In addition, at PIK3C2A (PI3K-C2 alpha), the “% Inhibition Avg” value is 83%.
